From patent US12371428B2 (Exelixis, Inc., priority 2019, dated 2025)

Key:
[1] = target: KDR (phospho-KDR, VEGF165-stimulated HUVEC cells) (Homo sapiens (Human), UniProt P35968); assay: KDR autophosphorylation ELISA in HUVEC cells (Example G); assay type: cell-based; details: cellular activity; KDR autophosphorylation ELISA in HUVEC cells
Procedure, shortened: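 HUVEC cells, serum-starved 24 h, were treated 1 h with an 8-point compound dilution (0.3% DMSO) and then stimulated with 100 ng/mL VEGF165 for 5 min. Phospho-KDR in lysates was quantified by sandwich ELISA against a phospho-KDR standard. IC50 from a 4-parameter logistic fit, normalised between stimulated DMSO and unstimulated controls.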

[2] = target: Mer (phospho-Mer, MERTK-transfected 293A cells) (Homo sapiens (Human), UniProt Q12866); assay: Mer autophosphorylation ELISA in transient transfected 293A cells (Example H); assay type: cell-based; details: cellular activity; Mer autophosphorylation ELISA in transient transfected 293A cells
Procedure, shortened: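 Human MERTK transiently transfected into 293A cells; compounds as 8-point dose curve in serum-free medium (0.3% DMSO final), 1 h. Lysates assayed by phospho-Mer sandwich ELISA against phospho-Mer standard; DMSO = 100%, reference inhibitor = 0% activity; IC50 from 4-parameter logistic fit.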

[3] = target: Human MER (residues 528-999) (Homo sapiens (Human), UniProt Q12866); assay: Human Mer kinase assay, HTRF KinEase (Example C-2); assay type: biochemical; details: protocol of Example C-2 (other compounds)
Procedure, shortened: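 HTRF KinEase TK assay with MER 528-999 (1 ng/well) in enzymatic buffer plus 5 mM MgCl2 and 1 mM DTT, biotinylated peptide substrate and ATP at Km (40 μM), 3% DMSO final, 60 min at room temperature. Stopped with EDTA detection mix (SA-XL665, TK antibody-Eu3+), read at 665/620 nm after 60 min; IC50 from 10-point 4-parameter fit, normalized to DMSO and 1 μM reference.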

[4] = target: Human MET (residues 956-1390) (Homo sapiens (Human), UniProt P08581); assay: Human Met kinase assay, HTRF KinEase (Example D-2); assay type: biochemical; details: protocol of Example D-2 (other compounds); read-out: c-Met IC50
Procedure, shortened: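 HTRF KinEase assay on MET residues 956-1390 (0.1 ng/well) in buffer with 5 mM MgCl2, 1 mM DTT and 1 mM MnCl2, with biotinylated peptide substrate, ATP at Km, 10 compound concentrations and 3% DMSO final, run 40 min at room temperature. The […] signal was normalized to DMSO and to 1 μM reference compound, and IC50 came from a 4-parameter logistic fit.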

Chain of Human MER (residues 528-999) (Q12866 528-999): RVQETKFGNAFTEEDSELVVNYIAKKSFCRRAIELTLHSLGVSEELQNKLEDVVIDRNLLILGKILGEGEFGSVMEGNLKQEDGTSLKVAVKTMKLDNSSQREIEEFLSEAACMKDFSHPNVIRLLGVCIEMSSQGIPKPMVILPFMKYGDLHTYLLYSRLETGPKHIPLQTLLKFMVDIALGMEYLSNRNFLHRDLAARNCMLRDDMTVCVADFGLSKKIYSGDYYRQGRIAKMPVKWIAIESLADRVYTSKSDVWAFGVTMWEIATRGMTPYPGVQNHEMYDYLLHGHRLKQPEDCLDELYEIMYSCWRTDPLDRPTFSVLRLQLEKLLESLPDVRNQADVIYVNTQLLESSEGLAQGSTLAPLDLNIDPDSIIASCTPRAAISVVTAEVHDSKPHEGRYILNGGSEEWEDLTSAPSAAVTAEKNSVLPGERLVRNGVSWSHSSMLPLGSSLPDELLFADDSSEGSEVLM
Chain of Human MET (residues 956-1390) (P08581 956-1390): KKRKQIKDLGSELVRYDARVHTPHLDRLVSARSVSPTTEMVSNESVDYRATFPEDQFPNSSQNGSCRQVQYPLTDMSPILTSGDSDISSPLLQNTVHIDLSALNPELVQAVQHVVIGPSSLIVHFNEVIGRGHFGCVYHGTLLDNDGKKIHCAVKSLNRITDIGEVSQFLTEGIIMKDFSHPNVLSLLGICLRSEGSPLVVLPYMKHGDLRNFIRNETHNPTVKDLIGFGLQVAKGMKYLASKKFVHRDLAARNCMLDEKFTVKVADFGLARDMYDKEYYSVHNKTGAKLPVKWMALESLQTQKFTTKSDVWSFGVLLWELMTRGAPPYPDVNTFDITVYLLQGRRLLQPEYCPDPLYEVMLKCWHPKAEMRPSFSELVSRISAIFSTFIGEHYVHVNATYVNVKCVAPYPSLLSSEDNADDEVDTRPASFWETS
Chain of Mer (phospho-Mer, MERTK-transfected 293A cells) (Q12866 21-999): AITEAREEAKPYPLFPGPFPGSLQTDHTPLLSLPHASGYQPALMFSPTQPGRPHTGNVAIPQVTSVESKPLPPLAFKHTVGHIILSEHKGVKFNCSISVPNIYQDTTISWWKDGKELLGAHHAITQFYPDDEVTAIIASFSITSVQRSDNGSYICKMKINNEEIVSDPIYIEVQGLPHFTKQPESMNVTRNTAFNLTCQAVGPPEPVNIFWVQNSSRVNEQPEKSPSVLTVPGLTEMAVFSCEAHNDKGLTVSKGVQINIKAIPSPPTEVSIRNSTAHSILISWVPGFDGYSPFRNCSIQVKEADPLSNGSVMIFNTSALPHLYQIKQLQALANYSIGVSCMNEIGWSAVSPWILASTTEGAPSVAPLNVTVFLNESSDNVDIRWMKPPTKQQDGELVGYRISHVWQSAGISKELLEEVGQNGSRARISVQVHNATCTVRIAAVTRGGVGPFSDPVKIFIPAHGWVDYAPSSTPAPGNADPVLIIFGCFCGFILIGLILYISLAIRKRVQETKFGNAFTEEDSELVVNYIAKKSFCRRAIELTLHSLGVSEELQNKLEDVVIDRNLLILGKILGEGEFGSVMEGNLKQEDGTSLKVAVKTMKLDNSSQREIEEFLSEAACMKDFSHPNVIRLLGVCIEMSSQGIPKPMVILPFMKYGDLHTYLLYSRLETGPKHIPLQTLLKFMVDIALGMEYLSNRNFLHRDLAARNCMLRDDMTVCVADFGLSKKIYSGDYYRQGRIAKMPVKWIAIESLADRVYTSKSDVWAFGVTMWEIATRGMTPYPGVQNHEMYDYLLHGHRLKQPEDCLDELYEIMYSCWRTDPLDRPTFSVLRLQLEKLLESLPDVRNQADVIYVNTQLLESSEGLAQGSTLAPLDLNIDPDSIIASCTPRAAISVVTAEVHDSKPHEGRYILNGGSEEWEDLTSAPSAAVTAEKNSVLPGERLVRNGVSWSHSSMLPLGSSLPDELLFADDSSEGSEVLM
Chain of KDR (phospho-KDR, VEGF165-stimulated HUVEC cells) (P35968 20-1356): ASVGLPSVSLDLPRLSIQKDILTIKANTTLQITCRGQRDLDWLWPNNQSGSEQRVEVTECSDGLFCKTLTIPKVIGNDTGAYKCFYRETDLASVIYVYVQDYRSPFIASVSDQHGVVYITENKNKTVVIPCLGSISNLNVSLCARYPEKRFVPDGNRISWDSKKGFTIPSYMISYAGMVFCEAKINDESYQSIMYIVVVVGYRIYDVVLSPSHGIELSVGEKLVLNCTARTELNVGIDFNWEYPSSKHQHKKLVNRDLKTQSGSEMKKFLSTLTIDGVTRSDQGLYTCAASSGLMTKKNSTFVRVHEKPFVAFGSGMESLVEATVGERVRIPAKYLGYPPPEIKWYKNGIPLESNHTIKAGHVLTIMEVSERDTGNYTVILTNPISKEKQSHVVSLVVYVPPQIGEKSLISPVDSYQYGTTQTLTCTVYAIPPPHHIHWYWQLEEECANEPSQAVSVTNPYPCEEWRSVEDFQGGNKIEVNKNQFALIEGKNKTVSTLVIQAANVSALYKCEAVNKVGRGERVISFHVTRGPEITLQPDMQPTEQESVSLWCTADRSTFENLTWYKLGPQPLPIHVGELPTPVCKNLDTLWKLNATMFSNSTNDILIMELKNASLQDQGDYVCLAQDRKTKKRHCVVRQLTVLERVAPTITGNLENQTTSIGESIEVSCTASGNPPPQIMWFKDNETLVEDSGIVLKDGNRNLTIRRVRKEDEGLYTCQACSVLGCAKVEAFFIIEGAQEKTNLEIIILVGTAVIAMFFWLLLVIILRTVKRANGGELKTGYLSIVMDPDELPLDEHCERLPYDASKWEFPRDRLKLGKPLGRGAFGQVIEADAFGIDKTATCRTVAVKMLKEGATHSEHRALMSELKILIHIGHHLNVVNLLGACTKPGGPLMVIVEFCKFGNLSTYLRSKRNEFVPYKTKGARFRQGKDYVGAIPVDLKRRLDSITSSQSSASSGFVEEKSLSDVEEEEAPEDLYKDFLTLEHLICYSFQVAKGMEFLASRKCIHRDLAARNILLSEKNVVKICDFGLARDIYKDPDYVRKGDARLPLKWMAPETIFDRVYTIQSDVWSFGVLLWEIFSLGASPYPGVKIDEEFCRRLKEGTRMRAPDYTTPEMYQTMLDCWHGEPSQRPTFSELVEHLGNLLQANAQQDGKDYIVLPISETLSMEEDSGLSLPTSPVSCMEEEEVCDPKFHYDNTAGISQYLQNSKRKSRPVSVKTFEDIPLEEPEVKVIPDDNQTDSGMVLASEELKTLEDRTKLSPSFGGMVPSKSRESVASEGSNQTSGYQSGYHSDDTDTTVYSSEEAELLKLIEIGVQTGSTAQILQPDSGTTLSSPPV

Structure (SMILES) | IC50 [1] [nM] | IC50 [2] [nM] | IC50 [3] [nM] | IC50 [4] [nM]
COc1cc2nccc(Oc3ccc(NC(=O)c4cn(C(C)C)c(C)c(-c5ccc(F)cc5)c4=O)cc3)c2nc1OC [Compound 115, N-[4-[(6,7-Dimethoxy-1,5-naphthyridin-4-yl)oxy]phenyl]-5-(4-fluorophenyl)-6-methyl-4-oxo-1-propan-2-ylpyridine-3-carboxamide] | > 300 | < 100 | < 100 | < 100
COc1ccc2nccc(Oc3ccc(NC(=O)c4cn(C)c(C)c(-c5ccc(F)cc5)c4=O)cc3F)c2n1 [Compound 113, N-[3-Fluoro-4-[(6-methoxy-1,5-naphthyridin-4-yl)oxy]phenyl]-5-(4-fluorophenyl)-1,6-dimethyl-4-oxopyridine-3-carboxamide] | > 300 | < 100 | < 100 | 100 to 300
CCn1cc(C(=O)Nc2ccc(Oc3ccnc4cc(OC)ccc34)c(F)c2)c(=O)c(-c2ccc(F)cc2)c1C [Compound 107, 1-Ethyl-N-[3-fluoro-4-(7-methoxyquinolin-4-yl)oxyphenyl]-5-(4-fluorophenyl)-6-methyl-4-oxopyridine-3-carboxamide] | 100 to 300 | < 100 | < 100 | < 100
COc1cnc2c(Oc3ccc(NC(=O)c4cn(C)cc(-c5ccc(F)cc5)c4=O)cc3F)ccnc2c1 [Compound 112, N-[3-Fluoro-4-[(7-methoxy-1,5-naphthyridin-4-yl)oxy]phenyl]-5-(4-fluorophenyl)-1-methyl-4-oxopyridine-3-carboxamide] | > 300 | < 100 | < 100 | < 100
CCn1cc(C(=O)Nc2ccc(Oc3ccnc4cc(OC)c(OC)nc34)c(F)c2)c(=O)c(-c2ccc(F)cc2)c1 [Compound 116, N-[4-[(6,7-Dimethoxy-1,5-naphthyridin-4-yl)oxy]-3-fluorophenyl]-1-ethyl-5-(4-fluorophenyl)-4-oxopyridine-3-carboxamide] | < 100 | < 100 | < 100 | < 100
COc1cc2nccc(Oc3ccc(NC(=O)c4cn(CCO)cc(-c5ccc(F)cc5)c4=O)cc3F)c2nc1OC [Compound 117, N-[4-[(6,7-Dimethoxy-1,5-naphthyridin-4-yl)oxy]-3-fluorophenyl]-5-(4-fluorophenyl)-1-(2-hydroxyethyl)-4-oxopyridine-3-carboxamide] | < 100 | < 100 | < 100 | < 100
COc1ccc2c(Oc3ccc(NC(=O)c4cn(C(C)C)c(C)c(-c5ccc(F)cc5)c4=O)cc3F)ccnc2c1 [Compound 106, N-[3-Fluoro-4-(7-methoxyquinolin-4-yl)oxyphenyl]-5-(4-fluorophenyl)-6-methyl-4-oxo-1-propan-2-ylpyridine-3-carboxamide] | 100 to 300 | < 100 | < 100 | < 100
COc1cc2nccc(Oc3ccc(NC(=O)c4cnc(C)n(-c5ccc(F)cc5)c4=O)cc3F)c2nc1OC [Compound 97, N-[4-[(6,7-Dimethoxy-1,5-naphthyridin-4-yl)oxy]-3-fluorophenyl]-1-(4-fluorophenyl)-2-methyl-6-oxopyrimidine-5-carboxamide] | < 100 | < 100 | < 100 | < 100
COc1cc2nccc(Oc3ccc(NC(=O)c4cncc(-c5ccc(F)cc5)c4O)cc3)c2nc1OC [Compound 118, N-[4-[(6,7-Dimethoxy-1,5-naphthyridin-4-yl)oxy]phenyl]-5-(4-fluorophenyl)-4-hydroxypyridine-3-carboxamide] | < 100 | < 100 | < 100 | < 100
COc1ccc2c(Oc3ccc(NC(=O)c4cnc(C)c(-c5ccc(F)cc5)c4O)cc3)ccnc2c1 [Compound 108, 5-(4-Fluorophenyl)-4-hydroxy-N-[4-(7-methoxyquinolin-4-yl)oxyphenyl]-6-methylpyridine-3-carboxamide] | < 100 | < 100 | < 100 | < 100
COc1cnc2c(Oc3ccc(NC(=O)c4cn(C)c(C)c(-c5ccc(F)cc5)c4=O)cc3)ccnc2c1 [Compound 111, 5-(4-Fluorophenyl)-N-[4-[(7-methoxy-1,5-naphthyridin-4-yl)oxy]phenyl]-1,6-dimethyl-4-oxopyridine-3-carboxamide] | > 300 | < 100 | < 100 | < 100

Now from value to compound:

IC50 [1] [nM] | IC50 [2] [nM] | IC50 [3] [nM] | IC50 [4] [nM] | Structure (SMILES)
< 100 | < 100 | < 100 | < 100 | COc1cc2nccc(Oc3ccc(NC(=O)c4c(C)ncn(-c5ccc(F)cc5)c4=O)cc3F)c2nc1OC [Compound 98, N-[4-[(6,7-Dimethoxy-1,5-naphthyridin-4-yl)oxy]-3-fluorophenyl]-1-(4-fluorophenyl)-4-methyl-6-oxopyrimidine-5-carboxamide]
< 100 | < 100 | < 100 | < 100 | COc1cc2nccc(Oc3ccc(NC(=O)c4c[nH]c(=O)n(-c5ccc(F)cc5)c4=O)cc3F)c2nc1OC [Compound 102, N-[4-[(6,7-Dimethoxy-1,5-naphthyridin-4-yl)oxy]-3-fluorophenyl]-3-(4-fluorophenyl)-2,4-dioxo-1H-pyrimidine-5-carboxamide]
< 100 | < 100 | < 100 | < 100 | COc1cc2nccc(Oc3ccc(NC(=O)c4cnc(N(C)C)n(-c5ccc(F)cc5)c4=O)cc3F)c2nc1OC [Compound 100, N-[4-[(6,7-Dimethoxy-1,5-naphthyridin-4-yl)oxy]-3-fluorophenyl]-2-(dimethylamino)-1-(4-fluorophenyl)-6-oxopyrimidine-5-carboxamide]
< 100 | < 100 | < 100 | < 100 | COc1cc2nccc(Oc3ccc(NC(=O)c4cnc(C)c(-c5ccc(F)cc5)c4O)cc3F)c2cc1OC [Compound 109, N-[4-(6,7-Dimethoxyquinolin-4-yl)oxy-3-fluorophenyl]-5-(4-fluorophenyl)-4-hydroxy-6-methylpyridine-3-carboxamide]
< 100 | < 100 | < 100 | < 100 | COc1cc2nccc(Oc3ccc(NC(=O)c4c(C)nc(C)n(-c5ccc(F)cc5)c4=O)cc3F)c2nc1OC [Compound 101, N-[4-[(6,7-Dimethoxy-1,5-naphthyridin-4-yl)oxy]-3-fluorophenyl]-1-(4-fluorophenyl)-2,4-dimethyl-6-oxopyrimidine-5-carboxamide]
< 100 | < 100 | < 100 | < 100 | COc1ccc2c(Oc3ccc(NC(=O)c4cnc(C)c(-c5ccc(F)cc5)c4O)cc3F)ccnc2c1 [Compound 105, N-[3-Fluoro-4-(7-methoxyquinolin-4-yl)oxyphenyl]-5-(4-fluorophenyl)-4-hydroxy-6-methylpyridine-3-carboxamide]
